Assay results as given in US20250295648A1 (priority 2024, published 2025).

Assays:
MPTP-treated marmosets = details: in vivo; cited from earlier work
[1] = system: L-DOPA-induced dyskinesia in Parkinson's disease patients; test: Unified Dyskinesia Rating Scale (UDysRS) after 150% L-DOPA challenge; details: for UDysRS Part 3+4 score, change from baseline: PPS
Procedure: Patients were rated for dyskinesia at baseline and on days 28 (at end of up-titration period) and 42 (end of stable dosing period). Because the level of dyskinesia experienced by patients can vary over time, they were given 150% (i.e., 1.5×) of their regular L-DOPA dose (up to a maximum of 250 mg) as a challenge 30 min before each dyskinesia assessment to improve comparability between patients and between visits. Patients were filmed 30, 60 and 90 min after dosing with L-DOPA (˜5 min of filming each time). LID was assessed using the Unified Dyskinesia Rating Scale (UDysRS). Changes from baseline are shown for total score (i.e., Parts 1 to 4), for total objective score (i.e., Parts 3+4), and for the sum of Part 3 objective impairment assessment scores. Because objective LID assessment was carried out at 3 time-points (30, 60 and 90 min) following L-DOPA challenge, the above parameters were analyzed based on the most severe of the three scores as well as on the average score of the 3 time points.
The patient took 150% of their normal L-DOPA dose 30 minutes prior to the start of efficacy assessments (UDysRS) at Day 1 (Visit 2), Day 28 (Visit 6) and Day 42 (Visit 7).
The UDysRS is a rating instrument designed to assess the core features of dyskinesia in Parkinson's Disease. The UDysRS consists of 4 parts: • r. Part I, historical disability with regard to the patient's perceptions of the impact on activities of ADL of on-dyskinesia. • s. Part II, historical disability with regard to the patient's perceptions of the impact on ADL of off-dystonia. • t. Part III, objective impairment, which assesses severity of dyskinesia, affected body parts, and type of impairment (choreic vs. dystonic). • u. Part IV, objective disability, based on an evaluation of Part III activities.
Each item in the UDysRS is scored from 0 to 4, with a possible maximum total score of 104.
The UDysRS assessment would be performed at baseline (Day 1, Visit 2), Day 28 and Day 42 (Visits 6 and 7) starting approximately 30 minutes after the L-DOPA challenge on these days.
The data for all 3 assessments performed at each visit would be entered in the eCRF and the Investigator will highlight which of the assessments, corresponding to the assessment where the patient had most severe dyskinesia, that would be used in the descriptive summaries of data.
Change from baseline in the UDysRS total score to Visit 6 (Day 28) and Visit 7 (Day 42) respectively would be summarized using descriptive statistics. […] The same analysis would be done for UDysRS total objective score Part III and IV only.
The baseline value of the dependent variable has been included in the model as a continuous covariate.

[2] = 5 patients co-treated with amantadine
[3] = Full analysis set, Visit 2 Baseline
[4] = Full analysis set, Visit 6 Clinic Efficacy Visit
[5] = Full analysis set, Visit 7 Clinic Efficacy Visit
[6] = Full analysis set, average of assessment sessions Part 3 and Part 4, Visit 2 Baseline
[7] = Full analysis set, average of assessment sessions Part 3 and Part 4, Visit 6 Clinic Efficacy Visit
[8] = Full analysis set, average of assessment sessions Part 3 and Part 4, Visit 7 Clinic Efficacy Visit
[9] = Full analysis set, average of assessment sessions, highest item score, Visit 2 Baseline
[10] = Full analysis set, average of assessment sessions, highest item score, Visit 6 Clinic Efficacy Visit
[11] = Full analysis set, average of assessment sessions, highest item score, Visit 7 Clinic Efficacy Visit
[12] = Full analysis set, most severe session, highest item score, Visit 2 Baseline
[13] = Full analysis set, most severe session, highest item score, Visit 6 Clinic Efficacy Visit
[14] = Full analysis set, most severe session, highest item score, Visit 7 Clinic Efficacy Visit
[15] = Visit 2 Baseline, per protocol analysis set, N = 15

Cc1ccc(CNCC2(F)CCN(C(=O)c3ccc(F)c(Cl)c3)CC2)nc1 [NLX-112, (3-chloro-4-fluoro-phenyl)-[4-fluoro-4-{[(5-methyl-pyridin-2-ylmethyl)-amino]-methyl}piperidin-1-yl]methanone]
disability scores (MPTP-treated marmosets): reduces disability scores | UDysRS Part 3 + 4, mean change from baseline [1, 2]: −4.4 | UDysRS Total, mean change from baseline [1, 2]: −4.0 | UDysRS Part 3+4 score, change from baseline ([1]; Day 28, average of 3 assessments (30, 60, 90 min), p=0.0065): −2.49 points | UDysRS total score (Parts 1-4), change from baseline ([1]; Day 28, most severe assessment, PPS n=15, p=0.0281 vs baseline): −4.1 points | UDysRS Part 3+4 score, change from baseline ([1]; Day 28, most severe assessment, not statistically significant): −1.7 points | UDysRS sum of Part 3 items, average of all 3 assessments, vs baseline ([1]; Day 28 and Day 42, within NLX-112 group): significant reduction | UDysRS total score or total objective (Parts 3 and 4) score, change from baseline, NLX-112 vs placebo ([1]; Day 28 or Day 42): no significant differences | UDysRS Part 3+4 score, change from baseline ([1]; Day 42, average of 3 assessments (30, 60, 90 min), p=0.0005): −3.31 points | UDysRS total score (Parts 1-4), change from baseline ([1]; Day 42, most severe assessment, PPS n=15, p=0.0016 vs baseline): −6.3 points | UDysRS Part 3+4 score, change from baseline ([1]; Day 42, most severe assessment, p=0.0038 vs baseline): −3.1 points | UDysRS Parts 1, 2, 3, and 4 most severe, collected value, mean [1, 3]: 31.8 | UDysRS Parts 1, 2, 3, and 4 most severe, collected value, median [1, 3]: 31.0 | UDysRS Parts 1, 2, 3, and 4 most severe, absolute change from baseline, mean [1, 4]: −4.1 | UDysRS Parts 1, 2, 3, and 4 most severe, absolute change from baseline, median [1, 4]: −2.0 | UDysRS Parts 1, 2, 3, and 4 most severe, collected value, mean [1, 4]: 27.5 | UDysRS Parts 1, 2, 3, and 4 most severe, collected value, median [1, 4]: 28.0 | UDysRS Parts 1, 2, 3, and 4 most severe, relative change from baseline (%), mean [1, 4]: −10.2% | UDysRS Parts 1, 2, 3, and 4 most severe, relative change from baseline (%), median [1, 4]: −6.45% | UDysRS Parts 1, 2, 3, and 4 most severe, absolute change from baseline, mean [1, 5]: −6.3 | UDysRS Parts 1, 2, 3, and 4 most severe, absolute change from baseline, median [1, 5]: −8.0 | UDysRS Parts 1, 2, 3, and 4 most severe, collected value, mean [1, 5]: 25.3 | UDysRS Parts 1, 2, 3, and 4 most severe, collected value, median [1, 5]: 24.0 | UDysRS Parts 1, 2, 3, and 4 most severe, relative change from baseline (%), mean [1, 5]: −19.0% | UDysRS Parts 1, 2, 3, and 4 most severe, relative change from baseline (%), median [1, 5]: −25.8% | UDysRS Parts 1, 2, 3, and 4 average, collected value, mean [1, 6]: 30.43 | UDysRS Parts 1, 2, 3, and 4 average, collected value, median [1, 6]: 29.67 | UDysRS Parts 1, 2, 3, and 4 average, absolute change from baseline, mean [1, 7]: −4.82 | UDysRS Parts 1, 2, 3, and 4 average, absolute change from baseline, median [1, 7]: −3.00 | UDysRS Parts 1, 2, 3, and 4 average, collected value, mean [1, 7]: 25.33 | UDysRS Parts 1, 2, 3, and 4 average, collected value, median [1, 7]: 25.33 | UDysRS Parts 1, 2, 3, and 4 average, relative change from baseline (%), mean [1, 7]: −9.33% | UDysRS Parts 1, 2, 3, and 4 average, relative change from baseline (%), median [1, 7]: −10.6% | UDysRS Parts 1, 2, 3, and 4 average, absolute change from baseline, mean [1, 8]: −6.51 | UDysRS Parts 1, 2, 3, and 4 average, absolute change from baseline, median [1, 8]: −7.67 | UDysRS Parts 1, 2, 3, and 4 average, collected value, mean [1, 8]: 23.64 | UDysRS Parts 1, 2, 3, and 4 average, collected value, median [1, 8]: 23.00 | UDysRS Parts 1, 2, 3, and 4 average, relative change from baseline (%), mean [1, 8]: −19.5% | UDysRS Parts 1, 2, 3, and 4 average, relative change from baseline (%), median [1, 8]: −21.9% | UDysRS Parts 3 and 4 average, collected value, mean [1, 9]: 13.98 | UDysRS Parts 3 and 4 average, collected value, median [1, 9]: 13.17 | UDysRS Parts 3 and 4 average, absolute change from baseline, mean [1, 10]: −2.49 | UDysRS Parts 3 and 4 average, absolute change from baseline, median [1, 10]: −1.67 | UDysRS Parts 3 and 4 average, collected value, mean [1, 10]: 11.60 | UDysRS Parts 3 and 4 average, collected value, median [1, 10]: 10.33 | UDysRS Parts 3 and 4 average, relative change from baseline (%), mean [1, 10]: −17.3% | UDysRS Parts 3 and 4 average, relative change from baseline (%), median [1, 10]: −20.0% | UDysRS Parts 3 and 4 average, absolute change from baseline, mean [1, 11]: −3.31 | UDysRS Parts 3 and 4 average, absolute change from baseline, median [1, 11]: −3.33 | UDysRS Parts 3 and 4 average, collected value, mean [1, 11]: 10.78 | UDysRS Parts 3 and 4 average, collected value, median [1, 11]: 9.67 | UDysRS Parts 3 and 4 average, relative change from baseline (%), mean [1, 11]: −25.3% | UDysRS Parts 3 and 4 average, relative change from baseline (%), median [1, 11]: −31.5% | UDysRS Parts 3 and 4 most severe, collected value, mean [1, 12]: 15.3 | UDysRS Parts 3 and 4 most severe, collected value, median [1, 12]: 13.5 | UDysRS Parts 3 and 4 most severe, absolute change from baseline, mean [1, 13]: −1.7 | UDysRS Parts 3 and 4 most severe, absolute change from baseline, median [1, 13]: −1.0 | UDysRS Parts 3 and 4 most severe, collected value, mean [1, 13]: 13.8 | UDysRS Parts 3 and 4 most severe, collected value, median [1, 13]: 12.0 | UDysRS Parts 3 and 4 most severe, relative change from baseline (%), mean [1, 13]: −15.8% | UDysRS Parts 3 and 4 most severe, relative change from baseline (%), median [1, 13]: −8.33% | UDysRS Parts 3 and 4 most severe, absolute change from baseline, mean [1, 14]: −3.1 | UDysRS Parts 3 and 4 most severe, absolute change from baseline, median [1, 14]: −4.0 | UDysRS Parts 3 and 4 most severe, collected value, mean [1, 14]: 12.4 | UDysRS Parts 3 and 4 most severe, collected value, median [1, 14]: 11.0 | UDysRS Parts 3 and 4 most severe, relative change from baseline (%), mean [1, 14]: −21.0% | UDysRS Parts 3 and 4 most severe, relative change from baseline (%), median [1, 14]: −31.6% | UDysRS Parts 1, 2, 3, and 4 average, collected value, mean [1, 15]: 30.16 | UDysRS Parts 1, 2, 3, and 4 average, collected value, median [1, 15]: 29.33 | UDysRS Parts 1, 2, 3, and 4 most severe, collected value, mean [1, 15]: 31.6 | UDysRS Parts 1, 2, 3, and 4 most severe, collected value, median [1, 15]: 31.0 | UDysRS Parts 3 and 4 average, collected value, mean [1, 15]: 14.09 | UDysRS Parts 3 and 4 average, collected value, median [1, 15]: 13.00 | UDysRS Parts 3 and 4 most severe, collected value, mean [1, 15]: 15.5 | UDysRS Parts 3 and 4 most severe, collected value, median [1, 15]: 14.0 | UDysRS Parts 1, 2, 3, and 4 average, absolute change from baseline, mean ([1]; Visit 6 Clinic Efficacy Visit (Day 28), per protocol analysis set, N = 15): −4.82
